In this assay the target is T1, F508del (Homo sapiens, UniProt P13569, DEL508-508).
T1 construct: expressed in transfected cells
As to the kind of experiment: Protocol 2: FRET membrane potential optical assay (VIPR), identification of correction compounds. It counts as cell-based. An outline of the steps: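 Correction of the F508del trafficking defect is scored as forskolin (10 μM)/genistein (20 μM)-stimulated Cl^− efflux in NIH3T3 mouse fibroblasts after a 16 hr, 37° C. compound exposure. Depolarization was followed optically using voltage-sensing FRET dyes.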

[1] abbreviates: F508del CFTR modulator activity, compounds of Table 1, read-out: EC30.
Where [2] appears, read: Table 3, compounds of Table 1 as modulators of CFTR activity, protocol not stated.

Read-outs that look alike come from different tables or passages of the source. Some results are limits rather than exact numbers.

T1 sequence (P13569 with tags, fused parts or gaps DEL508-508): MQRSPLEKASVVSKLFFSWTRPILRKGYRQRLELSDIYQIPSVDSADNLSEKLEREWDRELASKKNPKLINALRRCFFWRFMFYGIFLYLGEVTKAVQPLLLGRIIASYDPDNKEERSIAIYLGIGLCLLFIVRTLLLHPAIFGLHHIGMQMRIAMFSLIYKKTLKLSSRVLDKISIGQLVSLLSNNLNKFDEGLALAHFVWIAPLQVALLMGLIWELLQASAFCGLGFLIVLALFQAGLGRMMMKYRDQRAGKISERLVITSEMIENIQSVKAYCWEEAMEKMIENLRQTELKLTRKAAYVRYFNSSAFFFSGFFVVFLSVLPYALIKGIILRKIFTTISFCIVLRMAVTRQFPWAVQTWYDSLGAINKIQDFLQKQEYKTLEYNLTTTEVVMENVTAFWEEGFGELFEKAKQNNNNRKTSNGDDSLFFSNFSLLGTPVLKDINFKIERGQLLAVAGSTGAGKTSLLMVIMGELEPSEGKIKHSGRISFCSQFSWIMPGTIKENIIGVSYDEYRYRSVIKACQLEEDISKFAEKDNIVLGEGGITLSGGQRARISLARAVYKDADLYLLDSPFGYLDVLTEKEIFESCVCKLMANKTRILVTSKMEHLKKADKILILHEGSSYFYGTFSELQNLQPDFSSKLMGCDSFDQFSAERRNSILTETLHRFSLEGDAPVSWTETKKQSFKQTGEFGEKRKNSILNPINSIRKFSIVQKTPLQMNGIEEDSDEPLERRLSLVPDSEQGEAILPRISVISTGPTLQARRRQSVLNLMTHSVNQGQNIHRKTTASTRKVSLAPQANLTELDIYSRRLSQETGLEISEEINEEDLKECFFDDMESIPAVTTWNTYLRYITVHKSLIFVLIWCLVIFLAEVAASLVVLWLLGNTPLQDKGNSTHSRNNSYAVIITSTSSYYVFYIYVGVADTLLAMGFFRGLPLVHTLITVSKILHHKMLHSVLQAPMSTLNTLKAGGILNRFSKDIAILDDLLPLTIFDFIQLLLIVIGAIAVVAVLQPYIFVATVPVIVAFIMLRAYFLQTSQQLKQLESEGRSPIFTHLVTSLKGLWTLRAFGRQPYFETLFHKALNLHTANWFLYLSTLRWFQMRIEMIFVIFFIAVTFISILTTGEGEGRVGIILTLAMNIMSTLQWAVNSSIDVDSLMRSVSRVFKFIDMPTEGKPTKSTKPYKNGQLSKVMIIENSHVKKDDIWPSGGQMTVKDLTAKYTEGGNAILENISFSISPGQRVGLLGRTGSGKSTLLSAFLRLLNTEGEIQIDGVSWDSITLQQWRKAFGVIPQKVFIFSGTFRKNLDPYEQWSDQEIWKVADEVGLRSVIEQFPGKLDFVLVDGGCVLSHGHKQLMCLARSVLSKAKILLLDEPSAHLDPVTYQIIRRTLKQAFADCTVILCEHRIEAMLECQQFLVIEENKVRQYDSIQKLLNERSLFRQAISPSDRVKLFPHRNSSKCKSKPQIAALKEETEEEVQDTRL

As usually defined, the EC30 is the point of the concentration-response curve where the effect stands at 30%. With `COc1cccc(S(=O)(=O)NC(=O)c2cccnc2N2CC(C)CC2(C)C)n1` (stereo not drawn) [Compound 2430], the EC30 under setting [1] lay within 3000 to 10000 nM.
On the same count and under the same terms, the figure for `Cc1c(F)cccc1-c1ccc(C(=O)NS(=O)(=O)c2cccc(N)n2)c(N2C[C@@H](C)CC2(C)C)n1` [Compound 2616, N-[(6-amino-2-pyridyl)sulfonyl]-6-(3-fluoro-2-methyl-phenyl)-2-[(4S)-2,2,4-trimethylpyrrolidin-1-yl]pyridine-3-carboxamide] is below 3000 nM.
On the same count and under the same terms, the figure for `CC(C)COc1cc(F)cc(-c2ccc(C(=O)NS(=O)(=O)N3CC[C@H](F)C3)c(N3C[C@@H](C)CC3(C)C)n2)c1` [Compound 2228, 6-(3-fluoro-5-isobutoxy-phenyl)-N-[(3S)-3-fluoropyrrolidin-1-yl]sulfonyl-2-[(4S)-2,2,4-trimethylpyrrolidin-1-yl]pyridine-3-carboxamide] is below 3000 nM; for `CC#CCOc1cccc(S(=O)(=O)NC(=O)c2cccnc2N2CC(C)CC2(C)C)n1` (stereo not drawn) [Compound 2741] it is 3000 to 10000 nM.
Same read-out and setting: then `COc1ccc(C)cc1-c1ccc(C(=O)NS(=O)(=O)c2cccnc2N)c(N2C[C@@H](C)CC2(C)C)n1` [Compound 2413, N-[(2-amino-3-pyridyl)sulfonyl]-6-(2-methoxy-5-methyl-phenyl)-2-[(4S)-2,2,4-trimethylpyrrolidin-1-yl]pyridine-3-carboxamide], with below 3000 nM.
For `CC(C)COc1cc(F)cc(-c2ccc(C(=O)NS(=O)(=O)c3cccc(N)n3)c(OC3CCC(C)C3)n2)c1` (stereo not drawn) [Compound 452, N-[(6-amino-2-pyridyl)sulfonyl]-6-(3-fluoro-5-isobutoxy-phenyl)-2-(3-methylcyclopentoxy)pyridine-3-carboxamide], the EC30 entry under setting [2] is given as “+++ (“+++” means <3 uM)”.
Regarding `C[C@@H]1CN(c2nc(-n3cc(OCC(C)(C)C)cn3)ccc2C(=O)NS(=O)(=O)c2cccc(N)n2)C(C)(C)C1` [Compound 2603, N-[(6-amino-2-pyridyl)sulfonyl]-6-[4-(2,2-dimethylpropoxy)pyrazol-1-yl]-2-[(4S)-2,2,4-trimethylpyrrolidin-1-yl]pyridine-3-carboxamide], under setting [1], the EC30 was below 3000 nM.
In the case of `CCOC(=O)Cc1ccc(-c2cc(C(=O)NS(=O)(=O)c3ccccc3)n(Cc3c(C)cccc3C)n2)cc1` [Compound 21, ethyl 2-[4-[5-(benzenesulfonylcarbamoyl)-1-[(2,6-dimethylphenyl)methyl]pyrazol-3-yl]phenyl]acetate], under setting [2], the EC30 entry is given as “+++ (“+++” means <3 uM)”.
Consider `CC1CN(c2ncc(-c3cccc(C(C)(C)C)c3)cc2C(=O)NS(=O)(=O)c2cccc(N)n2)C(C)(C)C1` (stereo not drawn) [Compound 2180, N-[(6-amino-2-pyridyl)sulfonyl]-5-(3-tert-butylphenyl)-2-(2,2,4-trimethylpyrrolidin-1-yl)pyridine-3-carboxamide], for which the EC30 under setting [1] is below 3000 nM.
Same read-out and setting: the figure for `CC1CN(c2ncccc2C(=O)NS(=O)(=O)c2cccc(NC3CCCCC3)n2)C(C)(C)C1` (stereo not drawn) [Compound 2250, N—[[6-(cyclohexylamino)-2-pyridyl]sulfonyl]-2-(2,2,4-trimethylpyrrolidin-1-yl)pyridine-3-carboxamide] is below 3000 nM.
For `CC1CC(C)N(c2nc(-c3ccc(OC(C)C)nc3)ccc2C(=O)NS(=O)(=O)c2cccc(N)n2)C1` (stereo not drawn) [Compound 689, N-[(6-amino-2-pyridyl)sulfonyl]-2-(2,4-dimethylpyrrolidin-1-yl)-6-(6-isopropoxy-3-pyridyl)pyridine-3-carboxamide], under setting [2], the EC30 result is “+++ (“+++” means <3 uM)”.
The same measure, in the same setting: the entry for `Cc1cc(C)c(CN2Cc3ccccc3C2C(=O)NS(=O)(=O)c2ccc(N)cc2)c(C)c1` (stereo not drawn) [Compound 121, N-(4-aminophenyl)sulfonyl-2-[(2,4,6-trimethylphenyl)methyl]isoindoline-1-carboxamide] is “++ (“++” means between 3 uM and 10 uM)”; for `Cc1ccccc1CN1Cc2ccccc2C1(C)C(=O)NS(=O)(=O)c1cccc(N)n1` (stereo not drawn) [Compound 666, N-[(6-amino-2-pyridyl)sulfonyl]-1-methyl-2-(o-tolylmethyl)isoindoline-1-carboxamide] it is “++ (“++” means between 3 uM and 10 uM)”.
Consider `CC1CN(c2ncccc2C(=O)NS(=O)(=O)c2cccc(Nc3cccc(C#N)c3)n2)C(C)(C)C1` (stereo not drawn) [Compound 2484, N—[[6-(3-cyanoanilino)-2-pyridyl]sulfonyl]-2-(2,2,4-trimethylpyrrolidin-1-yl)pyridine-3-carboxamide], for which the EC30 under setting [1] is below 3000 nM.
Consider `COc1cccc(S(=O)(=O)NC(=O)c2ccc(-c3cc(F)cc(OCC(C)C)c3)nc2N2CCC(C)(C)CC2)c1` [Compound 510, 2-(4,4-dimethyl-1-piperidyl)-6-(3-fluoro-5-isobutoxy-phenyl)-N-(3-methoxyphenyl)sulfonyl-pyridine-3-carboxamide], for which the 30% effect concentration (EC30) entry under setting [2] is “+++ (“+++” means <3 uM)”.
Regarding `C[C@@H]1CN(c2nc(-c3ccc(C(F)F)cc3)ccc2C(=O)NS(=O)(=O)c2cccnc2N)C(C)(C)C1` [Compound 2644, N-[(2-amino-3-pyridyl)sulfonyl]-6-[4-(difluoromethyl)phenyl]-2-[(4S)-2,2,4-trimethylpyrrolidin-1-yl]pyridine-3-carboxamide], the concentration for an effect of 30% (EC30) under setting [1] was below 3000 nM.
The same measure, in the same setting: then `Cc1ccc(-c2ccc(C(=O)NS(=O)(=O)c3cccc(N)n3)c(N3CC(C)CC3(C)C)n2)nc1NCC(C)C` (stereo not drawn) [Compound 2362, N-[(6-amino-2-pyridyl)sulfonyl]-6-[6-(isobutylamino)-5-methyl-2-pyridyl]-2-(2,2,4-trimethylpyrrolidin-1-yl)pyridine-3-carboxamide], with below 3000 nM.
Take `C[C@@H]1CN(c2nc(-c3cc(F)ccc3O)ccc2C(=O)NS(=O)(=O)c2cccnc2N)C(C)(C)C1` [Compound 2046, N-[(2-amino-3-pyridyl)sulfonyl]-6-(5-fluoro-2-hydroxy-phenyl)-2-[(4S)-2,2,4-trimethylpyrrolidin-1-yl]pyridine-3-carboxamide]: the EC30 under setting [1] was below 3000 nM.
On the same count and under the same terms, the figure for `Cc1ccc2nc(N3C[C@@H](C)CC3(C)C)c(C(=O)NS(=O)(=O)c3ccc[nH]c3=O)cc2c1` [Compound 2471, 6-methyl-N-[(2-oxo-1H-pyridin-3-yl)sulfonyl]-2-[(4S)-2,2,4-trimethylpyrrolidin-1-yl]quinoline-3-carboxamide] is 3000 to 10000 nM.
As to `CC(C)COc1cc(F)cc(-c2ccc(C(=O)NS(=O)(=O)c3ccn[nH]3)c(N3CCC(C(C)C)CC3)n2)c1` [Compound 553, 6-(3-fluoro-5-isobutoxy-phenyl)-2-(4-isopropyl-1-piperidyl)-N-(1H-pyrazol-5-ylsulfonyl)pyridine-3-carboxamide], the EC30 result under setting [2] is given as “+++ (“+++” means <3 uM)”.
Same read-out and setting: then `COc1cccc(S(=O)(=O)NC(=O)c2cc3ccccc3n2Cc2c(C)cc(C)cc2C)c1` [Compound 335, N-(3-methoxyphenyl)sulfonyl-1-[(2,4,6-trimethylphenyl)methyl]indole-2-carboxamide], with “+++ (“+++” means <3 uM)”.
For the compound `COc1cccc(Nc2cccc(S(=O)(=O)NC(=O)c3cccnc3N3CC(C)CC3(C)C)n2)n1` (stereo not drawn) [Compound 2420, N—[[6-[(6-methoxy-2-pyridyl)amino]-2-pyridyl]sulfonyl]-2-(2,2,4-trimethylpyrrolidin-1-yl)pyridine-3-carboxamide], the EC30 under setting [1] lay within 3000 to 10000 nM.
On the same count and under the same terms, the figure for `CC(C)(C)c1ccc(C(=O)NS(=O)(=O)c2cccc(N)n2)c(N2CCC(C3CCOCC3)C2(C)C)n1` (single isomer, unassigned) [Compound 2266, N-[(6-amino-2-pyridyl)sulfonyl]-6-tert-butyl-2-(2,2-dimethyl-3-tetrahydropyran-4-yl-pyrrolidin-1-yl)pyridine-3-carboxamide] is below 3000 nM.
Consider `Cc1cc(C)c(Oc2nc(-c3ccc(Cl)cc3)ccc2C(=O)NS(=O)(=O)c2ccc[nH]c2=O)c(C)c1` [Compound 579, 6-(4-chlorophenyl)-N-[(2-oxo-1H-pyridin-3-yl)sulfonyl]-2-(2,4,6-trimethylphenoxy)pyridine-3-carboxamide], for which the EC30 result under setting [2] was “+++ (“+++” means <3 uM)”.
With `CC1CN(c2ncccc2C(=O)NS(=O)(=O)c2cccc(NCCCCc3ccccc3)n2)C(C)(C)C1` (stereo not drawn) [Compound 2119, N—[[6-(4-phenylbutylamino)-2-pyridyl]sulfonyl]-2-(2,2,4-trimethylpyrrolidin-1-yl)pyridine-3-carboxamide], the 30% effect concentration (EC30) under setting [1] was below 3000 nM.
As to `Cc1cccc(C)c1Cn1nc(CCC(C)(C)C)cc1C(=O)NS(=O)(=O)c1cccc(N)c1` [Compound 323, N-(3-aminophenyl)sulfonyl-5-(3,3-dimethylbutyl)-2-[(2,6-dimethylphenyl)methyl]pyrazole-3-carboxamide], the EC30 result under setting [2] is given as “+++ (“+++” means <3 uM)”.
`CC1CCN(c2nc3c(cc2C(=O)NS(=O)(=O)c2nccnc2N)CCCC3(C)C)CC1` [Compound 197, N-(3-aminopyrazin-2-yl)sulfonyl-8,8-dimethyl-2-(4-methyl-1-piperidyl)-6,7-dihydro-5H-quinoline-3-carboxamide]: the EC30 result under setting [2] is given as “+++ (“+++” means <3 uM)”.
Turning to `CC1CN(c2ncccc2C(=O)NS(=O)(=O)c2cccc(N3Cc4ccc(F)cc4C3)n2)C(C)(C)C1` (stereo not drawn) [Compound 2580, N—[[6-(5-fluoroisoindolin-2-yl)-2-pyridyl]sulfonyl]-2-(2,2,4-trimethylpyrrolidin-1-yl)pyridine-3-carboxamide], under setting [1], the EC30 is below 3000 nM.
Same read-out and setting: the figure for `COc1ccc(-c2ccc(C(=O)NS(=O)(=O)c3cccnc3N)c(N3C[C@@H](C)CC3(C)C)n2)c(C)c1` [Compound 2494, N-[(2-amino-3-pyridyl)sulfonyl]-6-(4-methoxy-2-methyl-phenyl)-2-[(4S)-2,2,4-trimethylpyrrolidin-1-yl]pyridine-3-carboxamide] is below 3000 nM.
`Cc1cc(C)c(Oc2nc(-c3ccoc3)ccc2C(=O)NS(=O)(=O)c2cccc(N)n2)c(C)c1` [Compound 284, N-[(6-amino-2-pyridyl)sulfonyl]-6-(3-furyl)-2-(2,4,6-trimethylphenoxy)pyridine-3-carboxamide]: the EC30 result under setting [2] is recorded as “+++ (“+++” means <3 uM)”.
